Data taken from the supplement of paper PMC10307832.

Key:
Experiment in all cases: relative viability (nuclei count vs DMSO), 5 days (fraction); higher = more cells survive
Apatinib + Palbociclib = compound: N#CC1(c2ccc(NC(=O)c3cccnc3NCc3ccncc3)cc2)CCCC1 [Apatinib] + CC(=O)c1c(C)c2cnc(Nc3ccc(N4CCNCC4)cn3)nc2n(C2CCCC2)c1=O [Palbociclib] (partner 0.5 µM)
Summary of the method: (§1)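 Lung cancer cell lines, seeded in 1536-well plates, were treated the following day by pin tool with a single drug or with five library-drug doses (not always all listed) in √10 steps on top of a fixed anchor-drug dose. Cells were fixed and nuclei stained in one step after 5 days, and nuclei were counted. Relative viability is the nuclei count for treated wells divided by that for vehicle wells, reported as medians of duplicate plates.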

Metformin + Linsitinib = compound: CN(C)C(=N)NC(=N)N [Metformin] + C[C@]1(O)C[C@@H](c2nc(-c3ccc4ccc(-c5ccccc5)nc4c3)c3c(N)nccn32)C1 [Linsitinib] (partner 1 µM)
Summary of the method: as §1

Apatinib + Dasatinib = compound: N#CC1(c2ccc(NC(=O)c3cccnc3NCc3ccncc3)cc2)CCCC1 [Apatinib] + Cc1nc(Nc2ncc(C(=O)Nc3c(C)cccc3Cl)s2)cc(N2CCN(CCO)CC2)n1 [Dasatinib] (partner 0.075 µM)
Summary of the method: as §1

Metformin + Bortezomib = compound: CN(C)C(=N)NC(=N)N [Metformin] + CC(C)C[C@H](NC(=O)[C@H](Cc1ccccc1)NC(=O)c1cnccn1)B(O)O [Bortezomib] (partner 0.002 µM)
Summary of the method: as §1

Cell Line	relative viability (Apatinib + Palbociclib; first compound 0.08 µM)	relative viability (Apatinib + Palbociclib; first compound 0.253 µM)	relative viability (Apatinib + Palbociclib; first compound 0.8 µM)	relative viability (Apatinib + Palbociclib; first compound 2.53 µM)	relative viability (Apatinib + Palbociclib; first compound 8 µM)	relative viability (Metformin + Linsitinib; first compound 10 µM)	relative viability (Metformin + Linsitinib; first compound 31.62 µM)	relative viability (Metformin + Linsitinib; first compound 100 µM)	relative viability (Metformin + Linsitinib; first compound 316.23 µM)	relative viability (Metformin + Linsitinib; first compound 1000 µM)	relative viability (Apatinib + Dasatinib; first compound 0.08 µM)	relative viability (Apatinib + Dasatinib; first compound 0.253 µM)	relative viability (Apatinib + Dasatinib; first compound 0.8 µM)	relative viability (Apatinib + Dasatinib; first compound 2.53 µM)	relative viability (Apatinib + Dasatinib; first compound 8 µM)	relative viability (Metformin + Bortezomib; first compound 10 µM)	relative viability (Metformin + Bortezomib; first compound 31.62 µM)	relative viability (Metformin + Bortezomib; first compound 100 µM)	relative viability (Metformin + Bortezomib; first compound 316.23 µM)	relative viability (Metformin + Bortezomib; first compound 1000 µM)
COR-L 105	0.428	0.397	0.365	0.365	0.42	1.06	1.23	0.977	0.87	0.815	0.357	0.349	0.351	0.3	0.269	1.07	1.05	1.04	0.874	1.17
A-427	0.52	0.534	0.507	0.518	0.453	1.09	1.13	1.09	1.1	1.04	0.706	0.66	0.798	0.671	0.575	0.997	1	0.94	0.963	0.901
NCI-H1792	0.662	0.651	0.577	0.633	0.622	–	0.742	0.803	0.632	0.664	0.965	0.789	0.763	0.573	0.512	–	0.918	1.04	0.922	0.827
LCLC-103H	0.513	0.436	0.426	0.465	0.483	1.05	1.26	1.06	1.12	1.19	0.436	0.402	0.458	0.43	0.344	0.971	1.22	1.06	1.12	1.06
NCI-H520	0.227	0.238	0.25	0.197	0.214	1.09	0.842	1.02	0.914	0.931	0.228	0.205	0.176	0.203	0.203	0.777	0.716	0.75	0.67	0.928
NCI-H3122	0.186	0.231	0.191	0.23	0.228	0.89	0.98	0.949	0.96	0.92	0.858	0.666	0.836	0.845	0.538	0.824	0.97	0.921	0.863	0.886
UMC-11	0.322	0.326	0.278	0.31	0.323	1.07	1.09	1.12	1.04	1.14	0.518	0.515	0.42	0.442	0.394	0.56	0.914	0.791	0.694	0.618
PC-3 [JPC-3]	–	0.555	0.557	0.516	0.53	0.895	1.01	0.902	0.918	0.942	0.988	0.943	0.88	0.83	0.879	0.702	0.865	0.772	0.862	0.833
EKVX	0.378	0.482	0.33	0.375	0.378	0.739	0.969	1.04	0.861	0.9	0.603	0.621	0.478	0.361	0.325	0.737	1.07	1.06	0.934	0.338
HCC-827	0.444	0.444	0.402	0.391	0.357	–	0.89	0.945	0.883	0.973	0.287	0.326	0.273	0.236	0.231	–	0.952	1.12	0.919	0.925
NCI-H838	0.229	0.261	0.206	0.215	0.217	1.04	1.09	1.05	0.988	1.02	0.353	0.303	0.272	0.328	0.268	1.02	1.14	0.926	0.957	1.23
NCI-H2126	0.324	0.352	0.355	0.322	0.34	0.633	0.735	0.687	0.703	0.721	0.584	0.514	0.52	0.488	0.446	1	1.11	1.09	1.09	1.09
COR-L23	0.321	0.341	0.278	0.273	0.271	0.821	0.828	0.9	0.77	0.843	0.469	0.598	0.518	0.45	0.405	1.04	0.867	0.86	0.882	0.99
NCI-H727	0.731	–	0.642	0.653	0.714	0.289	0.342	0.304	0.298	0.35	0.374	0.372	0.346	0.29	0.42	1.05	0.756	1.02	0.774	0.934
LXF-289	0.594	0.593	0.567	0.568	0.562	0.923	0.912	0.996	0.879	0.915	0.234	0.253	0.232	0.177	0.182	0.943	0.904	0.893	0.933	1.01
HCC-15	0.792	0.734	0.677	0.705	0.586	0.877	0.965	0.953	0.857	0.947	0.686	0.626	0.605	0.574	0.63	0.617	1.08	1.04	0.932	1.09
